Assays:
normal rCMECs = assay: Cell viability by MTT, normal rCMECs; type: cell-based, rat; settings: 24 h; FLZ 1 to 50 µM, zosuquidar 5 µM, FTC 10 µM
Experimental: (§1) To investigate the effects of FLZ on the growth of normal and PD rCMECs monolayers, a cell proliferation assay was performed. […] Therefore, in all following experiments, we used FLZ (1, 5 and 10 µM), zosuquidar (5 µM) and FTC (10 µM) as standard treatment.
(§2) Supplementary file pone.0102442.s001.tif: Figure S1 The cytotoxicity of FLZ (A) and inhibitors (B) in rat cerebral microvessel endothelial cells. rCMECs were exposed to the indicated concentration of FLZ (A) and transport inhibitors zosuquidar and FTC for 24 h. Each point represents the mean ± SD of three determinations. Each experiment was performed in three times. (TIF) Click here for additional data file.

PD rCMECs = assay: Cell viability by MTT, PD rCMECs; type: cell-based, rat; settings: 24 h; FLZ 1 to 50 µM, zosuquidar 5 µM, FTC 10 µM
Experimental: as §1, §2

[1] = system: PD pathological in vitro BBB model; assay: Sodium fluorescein permeability, PD pathological co-culture BBB model; type: in vitro ADME, rat; settings: co-culture model under Parkinson's conditions
Experimental: (§3) The flux of sodium fluorescein (NaF) across the BBB models was determined as previously described. Prior to transport studies, culture media from the top and bottom compartments were replaced with HBSS. 100 µg/ml Na-F (MW: 376 Da) was added to the upper inserts of the Transwell system. At 30, 60, 90 and 120 min, 50 µl samples were taken from the acceptor compartment and immediately replaced with fresh buffer. The concentrations of the fluorescein in samples from the upper to lower compartments were determined by fluorescence multiwell plate reader (excitation wavelength: 485 nm; emission wavelength: 535 nm). Based on the rate of influx of sodium fluorescein into the bottom compartment, permeability coefficients were calculated.

[2] = system: physiological in vitro BBB model; assay: Sodium fluorescein permeability, physiological co-culture BBB model; type: in vitro ADME, rat; settings: co-culture model under normal conditions
Experimental: as §3

Row | Structure (SMILES) | viability of normal rCMECs (MTT) (normal rCMECs) | viability of PD rCMECs (MTT) (PD rCMECs) | paracellular Papp of NaF [1] | paracellular Papp of NaF [2]
1 | COc1ccc2c3c([nH]c2c1)[C@H](C=C(C)C)N1C(=O)[C@@H]2CCCN2C(=O)[C@@H]1C3 [FTC, Fumitremorgin C] | did not effect | did not effect | – | –
2 | O=C([O-])c1ccccc1-c1c2ccc(=O)cc-2oc2cc([O-])ccc12.[Na+].[Na+] [NaF, sodium fluorescein] | – | – | 2.18±0.26 10^−6 cm/s | 1.92±0.19 10^−6 cm/s
3 | O[C@@H](COc1cccc2ncccc12)CN1CCN([C@@H]2c3ccccc3[C@@H]3[C@H](c4ccccc42)C3(F)F)CC1 [zosuquidar] | did not effect | did not effect | – | –
